Test results as given in paper PMC8232551 (RSC Chemical Biology, 2020).
Peptide text beside a SMILES is read from it. * marks the point of attachment. Cbz = O=C(OCc1ccccc1)*

Legend:
[1] = tested on: HEK-293 cells; experiment: Apoptosis assay in HEK-293 cells; assay type: cell-based; details: HEK-293 non-cancer derived cells, 10 μM
[2] = tested on: HeLa cells; experiment: Live-cell confocal imaging of uptake of fluorescein-labelled peptides; assay type: cell-based; details: 1000 nM

uptake into live HeLa cells [2]	SMILES	induction of apoptosis [1]
	CC(C)C[C@@H](C=O)NC(=O)[C@H](CC(C)C)NC(=O)[C@H](CC(C)C)NC(=O)OCc1ccccc1 [MG132] (Cbz-Leu-Leu-Leu-aldehyde)	did induce apoptosis
negligible uptake	O=C1OC2(c3ccc(O)cc3Oc3cc(O)ccc32)c2ccccc21 [fluorescein]	
